Results on one compound are retold here after paper PMC8218918, “The Cyr61 Is a Potential Target for Rotundifuran, a Natural Labdane-Type Diterpene from Vitex trifolia L., to Trigger Apoptosis of Cervical Cancer Cells” (Oxidative Medicine and Cellular Longevity, 2021).

The target of the assay is T1, Cyr61 (Homo sapiens, UniProt O00622).
T1 construct: gene CCN1; Cyr61 protein (Mammalian, C-Fc)
T1 sequence (O00622 25-381): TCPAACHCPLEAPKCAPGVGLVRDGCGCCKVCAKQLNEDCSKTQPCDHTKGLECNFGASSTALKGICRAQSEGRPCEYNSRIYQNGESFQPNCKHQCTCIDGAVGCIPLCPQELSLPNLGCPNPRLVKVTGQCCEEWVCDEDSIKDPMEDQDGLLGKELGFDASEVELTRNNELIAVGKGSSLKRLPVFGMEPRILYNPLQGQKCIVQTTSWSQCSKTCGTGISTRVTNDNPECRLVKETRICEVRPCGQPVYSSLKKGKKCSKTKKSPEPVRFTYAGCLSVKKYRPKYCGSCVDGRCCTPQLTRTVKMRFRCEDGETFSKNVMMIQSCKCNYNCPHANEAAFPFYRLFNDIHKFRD
Nature of the assay: Microscale thermophoresis with RED-NHS labelled recombinant Cyr61; supported by DARTS and CETSA in HeLa cells. The assay is classed as binding. A general note: In MST a laser heats a spot of the sample, and binding alters the fluorescence response.

SMILES strings stand for the structures.

A word on the Kd: it is the constant that tells how readily two partners part at equilibrium.

`CC(=O)O[C@@H]1C[C@@H](C)[C@](O)(CCc2ccoc2)[C@@]2(C)CCCC(C)(C)[C@H]12` [RTF, Rotundifuran]: the Kd stood at 3.8 ± 4.5 µM.
